For 58 compounds, IC50 results are on record in US10919852B2, “Immunomodulator compounds” (CHEMOCENTRYX, INC., priority 2017, dated 2021).

The structures appear in SMILES notation. Bounds are passed on as bounds.

human PD-L1 / Human PD-1, sequence (Q9NZQ7 19-239): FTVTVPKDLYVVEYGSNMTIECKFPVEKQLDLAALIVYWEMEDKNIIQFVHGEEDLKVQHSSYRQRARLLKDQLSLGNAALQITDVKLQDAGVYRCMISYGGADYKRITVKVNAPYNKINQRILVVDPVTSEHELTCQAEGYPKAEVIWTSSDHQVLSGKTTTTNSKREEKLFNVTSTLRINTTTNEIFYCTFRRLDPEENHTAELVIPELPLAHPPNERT

This assay has as its target human PD-L1 / Human PD-1 (Homo sapiens (Human), UniProt Q9NZQ7). The experiment in a line: Enzyme-Linked Immunosorbent Assay (ELISA), PD-1/PD-L1 binding. The conditions noted are these: plate-coated human PD-L1, biotinylated human PD-1. The method in brief:
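Compound dilutions (1:5 series) competed with 0.3 μg/mL biotin-labelled human PD-1 for PD-L1 immobilised at […], for 1 h at 37 °C. Read-out was A450 after streptavidin-HRP and a 20 min TMB reaction, stopped with 2 N H2SO4.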
`CCOC(=O)[C@@H](NCc1cc(Cl)c(O[C@H]2CCc3c(-c4cccc(OCCCN5CCC(O)CC5)c4C)cccc32)cc1OCc1cncc(C#N)c1)[C@@H](C)O` yielded an IC50 of 5 to 500 nM.

Take `Cc1c(OCCCN2CCC(O)CC2)cccc1-c1cccc2c1CC[C@@H]2Oc1cc(OCc2cc(C#N)cc(C#N)c2)c(CN[C@@H](CO)C(=O)O)cc1Cl`: the IC50 is under 5 nM.

For `Cc1c(OCCCN2CCC(O)CC2)cccc1-c1cccc2c1CC[C@@H]2Oc1cc(OCc2cc(C#N)cc(C#N)c2)c(CN[C@H](C(=O)O)[C@@H](C)O)cc1Cl`, the IC50 was under 5 nM.

`Cc1c(OCCCN2CCC(O)CC2)cccc1-c1cccc2c1CC[C@@H]2Oc1cc(OCc2cc(C#N)cc(C#N)c2)c(CN[C@@H]2CCCC[C@@H]2O)cc1Cl` showed an IC50 of under 5 nM.

`CCN1CCC(COc2cccc(-c3cccc4c3CC[C@@H]4Oc3cc(OCc4cncc(C#N)c4)c(CN[C@H]4CCC(=O)NC4)cc3Cl)c2Cl)C1` (stereo partly shown) displayed an IC50 of under 5 nM.

`Cc1c(OCCCN2CCC(F)CC2)cccc1-c1cc(F)cc2c1CC[C@@H]2Oc1cc(OCc2cc(C#N)cc(C#N)c2)c(CN[C@H]2CCC(=O)NC2)cc1Cl` had an IC50 of 5 to 500 nM.

Take `Cc1c(OCCCN2CCC(F)CC2)cccc1-c1cccc2c1CC[C@@H]2Oc1cc(OCc2cc(C#N)cc(C#N)c2)c(CN[C@H]2CCCNC2=O)cc1Cl`: the IC50 lay within 5 to 500 nM.

`Cc1c(OCCCN2CCC(F)CC2)cccc1-c1cccc2c1CC[C@@H]2Oc1cc(OCc2cc(C#N)cc(C#N)c2)c(CN[C@@H]2CCCNC2=O)cc1Cl` yielded a 50% inhibitory concentration (IC50) of 5 to 500 nM.

For the compound `Cc1c(OCCCN2CCC(F)CC2)cccc1-c1cccc2c1C[C@@H](F)[C@@H]2Oc1cc(OCc2cc(C#N)cc(C#N)c2)c(CN[C@H]2CCC(=O)NC2)cc1Cl`, the IC50 is 5 to 500 nM.

Compound `Cc1c(OCCCN2CCC(C)(F)CC2)cccc1-c1cccc2c1C[C@@H](F)[C@@H]2Oc1cc(OCc2cc(C#N)cc(C#N)c2)c(CN[C@H]2CCC(=O)NC2)cc1Cl` displayed an IC50 of 5 to 500 nM.

`Cc1c(OCCCN2CCC(F)CC2)cccc1-c1cccc2c1CC[C@@H]2Oc1cc(OCc2cc(C#N)cc(C#N)c2)c(CN[C@@H]2CCC(=O)NC2=O)cc1Cl` gave an IC50 of 5 to 500 nM.

For the compound `Cc1c(OCCCN2C(C)(C)CCCC2(C)C)cccc1-c1cccc2c1CC[C@@H]2Oc1cc(OCc2cc(C#N)cc(C#N)c2)c(CN[C@H]2CCC(=O)NC2)cc1Cl`, the IC50 was 5 to 500 nM.

On to `CCOc1cc(O[C@H]2CCc3c(-c4cccc(OCCCN5CCC(F)CC5)c4Cl)cccc32)c(Cl)cc1CN[C@@H]1CCC(=O)NC1`, for which the IC50 fell in the range of 5 to 500 nM.

`Cc1c(OCCCN2CCC(F)(C#N)CC2)cccc1-c1cccc2c1CC[C@@H]2Oc1cc(OCc2cc(C#N)cc(C#N)c2)c(CN[C@H]2CCC(=O)NC2)cc1Cl` yielded an IC50 of 5 to 500 nM.

In the case of `Cc1c(OCCCN2CCC(F)CC2)cccc1-c1cccc2c1CC[C@@H]2Oc1cc(OCc2cc(C#N)cc(C#N)c2)c(CNC2CCNC(=O)C2)cc1Cl` (stereo partly shown), the IC50 was under 5 nM.

`Cc1c(OCCCN2CCC[C@@H](F)C2)cccc1-c1cccc2c1CC[C@@H]2Oc1cc(OCc2cc(C#N)cc(C#N)c2)c(CN[C@H]2CCC(=O)NC2)cc1Cl` registered an IC50 of 5 to 500 nM.

As to `CCOc1cc(O[C@H]2CCc3c(-c4cccc(OCCCN5CCC(F)CC5)c4Cl)cccc32)c(Cl)cc1CN[C@H]1CCC(=O)NC1`, the IC50 fell in the range of 5 to 500 nM.

For the compound `Cc1c(OCCCN2C(C)CC2C)cccc1-c1cccc2c1CC[C@@H]2Oc1cc(OCc2cc(C#N)cc(C#N)c2)c(CN[C@H]2CCC(=O)NC2)cc1Cl` (stereo partly shown), the IC50 was under 5 nM.

For `COc1cc(O[C@H]2CCc3c(-c4cccc(OCCCN5CCC(F)CC5)c4C)cccc32)c(Cl)cc1CN[C@H]1CCC(=O)NC1`, the IC50 was in the range of 5 to 500 nM.

`COc1cc(O[C@H]2CCc3c(-c4cccc(OCCCN5CCC(C)(F)CC5)c4C)cccc32)c(Cl)cc1CN[C@H]1CCC(=O)NC1` gave an IC50 of 5 to 500 nM.

Take `Cc1c(OCCCN2CCCCC2(C)C)cccc1-c1cccc2c1CC[C@@H]2Oc1cc(OCc2cc(C#N)cc(C#N)c2)c(CN[C@H]2CCC(=O)NC2)cc1Cl`: the IC50 fell in the range of 5 to 500 nM.

Take `Cc1c(OCCCN2CCCC2C(C)(C)C)cccc1-c1cccc2c1CC[C@@H]2Oc1cc(OCc2cc(C#N)cc(C#N)c2)c(CN[C@H]2CCC(=O)NC2)cc1Cl` (stereo partly shown): the IC50 is 5 to 500 nM.

With `CN1CCC(COc2cccc(-c3cccc4c3CC[C@@H]4Oc3cc(OCc4cncc(C#N)c4)c(CN[C@H]4CCC(=O)NC4)cc3Cl)c2Cl)C1` (stereo partly shown), the IC50 is 5 to 500 nM.

For `Cc1c(OCCCN2CC(C)(F)C2)cccc1-c1cccc2c1CC[C@@H]2Oc1cc(OCc2cc(C#N)cc(C#N)c2)c(CNC[C@H]2CCC(=O)N2)cc1Cl`, the IC50 was in the range of 5 to 500 nM.

Compound `N#Cc1cncc(COc2cc(O[C@H]3CCc4c(-c5cccc(OCCCN6CCC(F)CC6)c5Cl)cccc43)c(Cl)cc2CN2CC(C(=O)O)C2)c1` returned an IC50 of under 5 nM.

Take `Cc1c(OCCCN2CC(C)(F)C2)cccc1-c1cccc2c1CC[C@@H]2Oc1cc(OCc2cc(C#N)cc(C#N)c2)c(CN[C@H]2CCC(=O)NC2)cc1Cl`: the IC50 fell in the range of 5 to 500 nM.

In the case of `Cc1c(OCCCN2CC(C)(C)C2)cccc1-c1cccc2c1CC[C@@H]2Oc1cc(OCc2cc(C#N)cc(C#N)c2)c(CN[C@H]2CCC(=O)NC2)cc1Cl`, the IC50 is under 5 nM.

For the compound `CCOc1cc(O[C@@H]2c3cccc(-c4cccc(OCCCN5CCC(C)(F)CC5)c4C)c3C[C@@H]2F)c(Cl)cc1CN[C@H](C(=O)NS(C)(=O)=O)[C@@H](C)O`, the IC50 was 5 to 500 nM.

As for `Cc1c(OCCCN2CCC(F)CC2)cccc1-c1cccc2c1CC[C@@H]2Oc1cc(OCc2cncc(C#N)c2)c(CNCC2CCC(=O)N2C)cc1Cl` (stereo partly shown), the IC50 was in the range of 5 to 500 nM.

As to `CCOc1cc(O[C@H]2CCc3c(-c4cccc(OCCCNC(C)(C)C)c4C)cccc32)c(Cl)cc1CN1CC(C(=O)O)C1`, the IC50 is 5 to 500 nM.

Compound `CCOc1cc(O[C@H]2CCc3c(-c4cccc(OCCCN5CCCC5(C)C)c4C)cccc32)c(Cl)cc1CN(C[C@@H]1CCC(=O)N1)C(C)C` yielded an IC50 of 5 to 500 nM.

Take `CN1CC(COc2cccc(-c3cccc4c3CC[C@@H]4Oc3cc(OCc4cncc(C#N)c4)c(CN[C@H]4CCC(=O)NC4)cc3Cl)c2Cl)CC1=O` (stereo partly shown): the IC50 lay in the range of 5 to 500 nM.

`Cc1c(OCCCN2CCC(F)CC2)cccc1-c1cccc2c1CC[C@@H]2Oc1cc(OCc2cncc(C#N)c2)c(CN2CC(S(N)(=O)=O)C2)cc1Cl` showed an IC50 of 5 to 500 nM.

In the case of `CCOc1cc(O[C@H]2CCc3c(-c4cccc(OCCCN5CCC5(C)C)c4C)cccc32)c(Cl)cc1CN[C@H]1CCC(=O)NC1`, the IC50 was 5 to 500 nM.

`CCOc1cc(O[C@H]2CCc3c(-c4cccc(OCCCN5CCC5(C)C)c4C)cccc32)c(Cl)cc1CNC[C@@H]1CCC(=O)N1` yielded an IC50 of under 5 nM.

The compound `CCOc1cc(O[C@H]2CCc3c(-c4cccc(OCCCN5CCC5(C)C)c4C)cccc32)c(Cl)cc1CN1CCC1(C)C` displayed an IC50 of 5 to 500 nM.

Compound `CCOc1cc(O[C@H]2CCc3c(-c4cccc(OCCCN5CCOCC5)c4C)cccc32)c(Cl)cc1CN1CC(C)(C(=O)O)C1` yielded an IC50 of 5 to 500 nM.

For the compound `CCOc1cc(O[C@H]2CCc3c(-c4cccc(OCCCN5CCC5(C)C)c4C)cccc32)c(Cl)cc1CN1CC(C(=O)O)C1`, the IC50 fell in the range of 5 to 500 nM.

Consider `CCOc1cc(O[C@H]2CCc3c(-c4cccc(OCCCN5CCC5(C)C)c4C)cccc32)c(Cl)cc1CN1CC(C)(C(=O)O)C1`, for which the IC50 is 5 to 500 nM.

As to `Cc1c(OCCCN2CC[C@@H](F)C[C@@H]2C)cccc1-c1cccc2c1CC[C@@H]2Oc1cc(OCc2cc(C#N)cc(C#N)c2)c(CN[C@H]2CCC(=O)NC2)cc1Cl`, the IC50 lay in the range of 5 to 500 nM.

As to `CCOc1cc(O[C@H]2CCc3c(-c4cccc(OCCCN5CCC5(C)C)c4C)cccc32)c(Cl)cc1CNC[C@H]1CCC(=O)N1`, the IC50 was in the range of 5 to 500 nM.

Regarding `CCOc1cc(O[C@H]2CCc3c(-c4cccc(OCCCN5CCC5(C)C)c4C)cccc32)c(Cl)cc1CN1CC(C)(C#N)C1`, the IC50 fell in the range of 5 to 500 nM.

In the case of `CCOc1cc(O[C@H]2CCc3c(-c4cccc(OCCCN5CCC5(C)C)c4C)cccc32)c(Cl)cc1CN1CC(C#N)C1`, the IC50 is 5 to 500 nM.

With `CCOc1cc(O[C@H]2CCc3c(-c4cccc(OCCCN5[C@H](C)CC[C@H]5C)c4C)cccc32)c(Cl)cc1CNC[C@@H]1CCC(=O)N1`, the IC50 was under 5 nM.

With `CCOc1cc(O[C@H]2CCc3c(-c4cccc(OCCCN5CCC[C@H]5C(C)C)c4C)cccc32)c(Cl)cc1CNC[C@@H]1CCC(=O)N1`, the IC50 was 5 to 500 nM.

In turn, `CCOc1cc(O[C@H]2CCc3c(-c4cccc(OCCCN5CCC[C@@H]5C(C)C)c4C)cccc32)c(Cl)cc1CNC[C@@H]1CCC(=O)N1` displayed an IC50 of under 5 nM.

Regarding `CCOc1cc(O[C@H]2CCc3c(-c4cccc(OCCCN(C)C(C)(C)C)c4C)cccc32)c(Cl)cc1CNC[C@@H]1CCC(=O)N1`, the IC50 was under 5 nM.

Regarding `CCOc1cc(O[C@H]2CCc3c(-c4cccc(OCCCN5CCC5(C)C)c4C)cccc32)c(Cl)cc1CNCC1CCC(=O)N1C` (stereo partly shown), the IC50 is 5 to 500 nM.

`CCOc1cc(O[C@H]2CCc3c(-c4cccc(OCCCN5CCC5(C)C)c4C)cccc32)c(Cl)cc1CN1CC(CC)(C(=O)O)C1` showed an IC50 of 5 to 500 nM.

In turn, `CCOc1cc(O[C@H]2CCc3c(-c4cccc(OCCCN(C)C(C)C)c4C)cccc32)c(Cl)cc1CNC[C@@H]1CCC(=O)N1` returned an IC50 of under 5 nM.

For the compound `CCOc1cc(O[C@H]2CCc3c(-c4cccc(OCCCN5CCCCC5(C)C)c4C)cccc32)c(Cl)cc1CNC[C@@H]1CCC(=O)N1`, the IC50 lay in the range of 5 to 500 nM.

`CCOc1cc(O[C@H]2CCc3c(-c4cccc(OCCCN5C(C)CC5(C)C)c4C)cccc32)c(Cl)cc1CNC[C@@H]1CCC(=O)N1` (stereo partly shown) came in with an IC50 of under 5 nM.

Regarding `CCOc1cc(O[C@H]2CCc3c(-c4cccc(OCCCN5CCC5C(C)(C)C)c4C)cccc32)c(Cl)cc1CNC[C@@H]1CCC(=O)N1` (stereo partly shown), the IC50 lay within 5 to 500 nM.

On to `CCOc1cc(O[C@H]2CCc3c(-c4cccc(OCCC(C)(C)N)c4C)cccc32)c(Cl)cc1CNC[C@@H]1CCC(=O)N1`, for which the 50% inhibitory concentration (IC50) fell in the range of 5 to 500 nM.

For `CCOc1cc(O[C@H]2CCc3c(-c4cccc(OCCC(C)(C)N)c4C)cccc32)c(Cl)cc1CN[C@H]1CCC(=O)NC1`, the IC50 lay in the range of 5 to 500 nM.

With `CCOc1cc(O[C@H]2CCc3c(-c4cccc(OCCCN5CCC5(C)C)c4C)cccc32)c(Cl)cc1CNCCO`, the concentration for half-maximal inhibition (IC50) was under 5 nM.

In the case of `CCOc1cc(O[C@H]2CCc3c(-c4cccc(OCCCN5CCC5(C)C)c4C)cccc32)c(Cl)cc1CNCC(C)(C)CO`, the IC50 is 5 to 500 nM.

Regarding `CCOc1cc(O[C@H]2CCc3c(-c4cccc(OCCCN5C(C)CC5C)c4C)cccc32)c(Cl)cc1CNC[C@@H]1CCC(=O)N1` (stereo partly shown), the IC50 was under 5 nM.
